Data published in ChEMBL document CHEMBL4680206, “Novel pyrrolidinone derivative lacks claimed histamine H receptor stimulation in receptor binding and functional studies” (Eur J Med Chem, 2020).
Values belong to the molecule of their own block, whether it stands above or below them. Active and inactive are the calls of the source. The calls are words filed in the database; no cut-off is given here.

Experiments:
Histamine H3 receptor [1] = biological target: T1, Histamine H3 receptor (Homo sapiens, UniProt Q9Y5N1); experiment: Displacement of [3H]Nalpha-methylhistamine from recombinant human histamine H3 receptor stably transfected in HEK-293T cells membrane incubated for 90 mins by scintillation counting method; format: cell membranes, Cell membrane
Histamine H3 receptor [2] = biological target: T1, Histamine H3 receptor; experiment: Displacement of bodilisant from recombinant human histamine H3 receptor stably transfected in HEK-293T cells membrane at 1 to 10 uM incubated for 60 mins by fluorescence-polarization assay; format: cell membranes; conditions: Cell membrane, dose 1-10 µM
Histamine H3 receptor [3] = biological target: T1, Histamine H3 receptor; experiment: Agonist activity at human H3 receptor expressed in HEK293 cells preincubated for 30 mins followed by [35S]-GTPgammaS addition and measured after 30 mins by liquid scintillation counting method; format: functional, cell-based; conditions: time 60.0 min
Histamine H3 receptor [4] = biological target: T1, Histamine H3 receptor; experiment: Antagonist activity at human H3 receptor expressed in CHO cells assessed as decrease in cAMP accumulation by measuring increase in forskolin level incubated for 4 hrs in presence of histamine by CRE/MRE-luciferase reporter gene assay; format: functional, cell-based
Histamine H3 receptor [5] = biological target: T1, Histamine H3 receptor; experiment: Antagonist activity at human H3 receptor expressed in HEK293 cells assessed as reversion of (R)alpha-MeHA induced activity preincubated for 30 mins followed by [35S]-GTPgammaS addition and measured after 30 mins by liquid scintillation counting method; format: functional, cell-based; conditions: filed as antagonist, time 60.0 min
Histamine H3 receptor [6] = biological target: T1, Histamine H3 receptor; experiment: Partial agonist activity at human H3 receptor stably transfected in CHO-DUKX cells assessed as […] by measuring reduction in forskolin level by HitHunter-cAMP assay relative to histamine; format: functional, cell-based
Histamine H3 receptor [7] = biological target: T1, Histamine H3 receptor; experiment: Agonist activity at human H3 receptor expressed in CHO cells assessed as […] by measuring reduction in forskolin level incubated for 4 hrs by CRE/MRE-luciferase reporter gene assay; format: functional, cell-based

T1 sequence (Q9Y5N1 whole entry): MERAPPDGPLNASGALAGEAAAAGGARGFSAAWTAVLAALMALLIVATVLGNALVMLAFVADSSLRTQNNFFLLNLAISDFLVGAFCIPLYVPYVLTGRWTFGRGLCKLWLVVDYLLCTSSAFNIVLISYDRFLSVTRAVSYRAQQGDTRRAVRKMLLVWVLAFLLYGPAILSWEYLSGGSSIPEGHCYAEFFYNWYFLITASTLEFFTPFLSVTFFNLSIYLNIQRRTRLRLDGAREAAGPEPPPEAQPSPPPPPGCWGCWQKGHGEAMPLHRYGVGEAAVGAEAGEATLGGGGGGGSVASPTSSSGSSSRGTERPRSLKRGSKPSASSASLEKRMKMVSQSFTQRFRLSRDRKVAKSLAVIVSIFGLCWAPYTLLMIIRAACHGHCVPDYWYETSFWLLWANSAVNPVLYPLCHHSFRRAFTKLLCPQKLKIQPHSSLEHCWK

Kd (Histamine H3 receptor [1]): 1.9 nM
Compound: CC1=CC(C)=[N+]2C1=C(c1ccc(OCCCN3CCCCC3)cc1)c1c(C)cc(C)n1[B-]2(F)F

Activity (Histamine H3 receptor [2]; filed as antagonist): Active
Compound: Clc1ccc(CCCOCCCN2CCCCC2)cc1

Compound: COc1cc(NC2(c3cccc(Cl)c3)C(=O)N(C(C)(C)C)C(=O)C2=Cc2ccccc2)cc(OC)c1OC (centres undefined)
Activity (Histamine H3 receptor [3]): inactive | Activity (Histamine H3 receptor [4]): inactive | Activity (Histamine H3 receptor [5]): Active | Ratio (Histamine H3 receptor [6]): 0.14 | Ki (Histamine H3 receptor [1]): 3200 nM | Activity (Histamine H3 receptor [2]): inactive

EC50 (Histamine H3 receptor [7]): 2.9 nM
Compound: N=C(N)SCCc1cnc[nH]1 [IMETIT]
